The values that follow come from publication PMC3351444, “Molecular Evolution of a Peptide GPCR Ligand Driven by Artificial Neural Networks” (PLoS ONE, 2012).

Read-outs that look alike come from different tables or passages of the source. Square brackets hold non-standard residues; d marks the D form. Ends that are not written are not given here. Peptide text beside a SMILES is read from it.

One series deals with T1, human CMKLR1 (Homo sapiens, UniProt Q99788).
T1 construct: host or cells: HEK293A (Invitrogen), stably expressing human Gα15
T1 sequence (Q99788 1-373): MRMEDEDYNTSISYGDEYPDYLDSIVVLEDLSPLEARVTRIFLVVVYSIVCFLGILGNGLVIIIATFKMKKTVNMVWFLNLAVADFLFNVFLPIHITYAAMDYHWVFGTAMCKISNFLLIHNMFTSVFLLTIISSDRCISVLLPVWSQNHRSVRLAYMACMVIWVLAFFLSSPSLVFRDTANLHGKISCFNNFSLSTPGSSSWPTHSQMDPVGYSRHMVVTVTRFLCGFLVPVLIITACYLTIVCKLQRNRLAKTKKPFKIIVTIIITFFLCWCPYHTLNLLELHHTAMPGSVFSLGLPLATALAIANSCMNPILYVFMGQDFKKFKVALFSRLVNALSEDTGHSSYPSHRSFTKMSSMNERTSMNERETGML
Description: Ca2+ mobilization (CellLux imaging) agonist assay in HEK293A cells expressing CMKLR1 and Gα15. It counts as cell-based. In a few lines:
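Agonist-evoked Ca2+ rise, read as FLUO4-AM fluorescence by imaging, in HEK293A cells carrying CMKLR1 plus Gα15. Peptides were diluted in C1 solution (pH 7.4) containing 0.1% BSA. Duplicate signals were averaged, corrected for buffer wells and normalized to background, and EC50 was fitted from amplitude versus concentration.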
(In general: Calcium flux is commonly read through the fluorescence of an indicator in the cells.)

A short description of series [1]: In vitro peptide stability in human serum (RP-HPLC). The conditions noted are these: for half-life at 50 µg/mL: human, human serum, 25% (v/v) in RPMI; for t1/2: metabolic stability in human serum.
Description: The initial time is recorded, and at known time intervals 50 µL of the reaction solution is removed and added to 100 µL of 6% aqueous trichloroacetic acid (TCA) for precipitation of serum proteins. […] The reaction supernatant is then analyzed using RP-HPLC (Agilent 1200 LC System) on a ZORBAX Eclipse XDB-C18, 4.6×150 mm, 5 µm column (Agilent). […] Fluorescence is detected at an excitation wavelength of 280 nm and emission wavelength of 340 nm. Kinetic analysis was carried out by least-squares analysis of the logarithm of the integration peak area versus time.
Setting [2] is: Ca2+ mobilization, CMKLR1, decimal comma.
The mark [3] stands for this setting: Ca2+ mobilization, CMKLR1, decimal comma, NR where no EC50 is given, read-out: EC50.
Where [4] appears, read: intracellular calcium mobilization, HEK293 cells expressing CMKLR1, mean of three independent experiments ± SD, read-out: activity: EC50 ±SD.

For the molecule `CC(C)C[C@H](NC(=O)[C@@H](N)Cc1ccc(O)cc1)C(=O)N1CCC[C@H]1C(=O)NCC(=O)N[C@@H](CCC(N)=O)C(=O)N[C@@H](Cc1ccc(O)cc1)C(=O)N[C@@H](C)C(=O)N[C@@H](Cc1ccc(O)cc1)C(=O)N[C@H](CO)C(=O)O` [compound 87] (H-YLPGQYAY[dS]-OH; N-terminus assumed), the max response at human CMKLR1 (setting [2]) is recorded as 1,62 DF/F0. Moreover, the EC50 at human CMKLR1 (setting [3]) is 27.5 nM. In addition, the half-life at 50 µg/mL in series [1] came to 49 min.
For `CC(C)C[C@H](NC(=O)[C@@H](N)Cc1ccc(O)cc1)C(=O)N1CCC[C@H]1C(=O)N[C@H](CC(C)C)C(=O)NCC(=O)N[C@@H](Cc1ccc(O)cc1)C(=O)N[C@@H](C)C(=O)N1CCC[C@@H]1C(=O)N[C@H](Cc1ccccc1)C(=O)O` [compound 151] (H-YLP[dL]GYA[dP][dF]-OH; N-terminus assumed), in that order: 1,47 DF/F0, 298 nM and 91 min.
As for FLPGQYAFK-OH [compound 64], at human CMKLR1 (setting [2]), the max response is 0,93 DF/F0. Moreover, the EC50 at human CMKLR1 (setting [3]) worked out at 567 nM. Also, the half-life at 50 µg/mL in series [1] is 26 min.
For the molecule `CC(C)C[C@H](NC(=O)[C@H](N)Cc1ccc(O)cc1)C(=O)N1CCC[C@H]1C(=O)N[C@H](CO)C(=O)N[C@@H](CCC(N)=O)C(=O)N[C@@H](Cc1ccc(O)cc1)C(=O)N[C@@H](C)C(=O)N[C@@H](Cc1ccccc1)C(=O)N[C@H](CO)C(=O)O` [compound 121] (H-[dY]LP[dS]QYAF[dS]-OH; N-terminus assumed), the max response on human CMKLR1 (setting [2]) is on record as 1,6 DF/F0. Also, the t1/2 in series [1] was found to be 1408 min.
Turning to YPPGQYAFF-OH [compound 68], at human CMKLR1 (setting [2]), the max response is reported as 0,94 DF/F0. On human CMKLR1 (setting [3]), the EC50 was 1480 nM. Further, the half-life at 50 µg/mL in series [1] came to 54 min.
For `CC(C)C[C@H](NC(=O)[C@@H](N)Cc1ccc(O)cc1)C(=O)N1CCC[C@H]1C(=O)NCC(=O)N[C@@H](CCC(N)=O)C(=O)N[C@@H](Cc1ccc(O)cc1)C(=O)N[C@@H](C)C(=O)N1CCC[C@@H]1C(=O)N[C@H](Cc1ccccc1)C(=O)O` [compound 125] (H-YLPGQYA[dP][dF]-OH; N-terminus assumed), in that order: 1,69 DF/F0, 14.3 nM and 42 min.
PGPGQFAFF-OH [compound 59]: on human CMKLR1 (setting [2]), the max response is 0,9 DF/F0. Moreover, at human CMKLR1 (setting [3]), the EC50 came to 335 nM. In addition, the half-life at 50 µg/mL in series [1] worked out at 80 min.
In the case of `C[C@H](N)C(=O)N[C@@H](Cc1ccccc1)C(=O)N[C@H](CO)C(=O)N[C@@H](CCC(N)=O)C(=O)N[C@@H](Cc1ccccc1)C(=O)N[C@H](CO)C(=O)N[C@@H](C)C(=O)N[C@@H](Cc1ccccc1)C(=O)N[C@H](CO)C(=O)O` [compound 106] (H-AF[dS]QF[dS]AF[dS]-OH; N-terminus assumed), the max response at human CMKLR1 (setting [2]) was 1,53 DF/F0. In addition, the EC50 at human CMKLR1 (setting [3]) amounted to 697 nM. Also, the half-life at 50 µg/mL in series [1] came to 110 min.
With `C[C@H](NC(=O)[C@H](Cc1ccc(O)cc1)NC(=O)[C@H](CCC(N)=O)NC(=O)CNC(=O)[C@@H]1CCCN1C(=O)[C@H](CCCNC(=N)N)NC(=O)[C@@H](N)Cc1ccc(O)cc1)C(=O)N[C@@H](Cc1ccccc1)C(=O)N[C@H](CO)C(=O)O` [compound 84] (H-YRPGQYAF[dS]-OH; N-terminus assumed), on human CMKLR1 (setting [2]), the max response is 1,84 DF/F0. Besides, in series [1], the t1/2 is on record as 21 min.
`CC(C)C[C@H](NC(=O)[C@H](C)NC(=O)[C@H](Cc1ccc(O)cc1)NC(=O)[C@@H](CCC(N)=O)NC(=O)CNC(=O)[C@@H]1CCCN1C(=O)[C@H](CC(C)C)NC(=O)[C@@H](N)Cc1ccc(O)cc1)C(=O)N[C@H](Cc1ccccc1)C(=O)O` [compound 135] (H-YLPG[dQ]YAL[dF]-OH; N-terminus assumed): at human CMKLR1 (setting [2]), the max response was 1,48 DF/F0. Besides, at human CMKLR1 (setting [3]), the EC50 stood at 72.2 nM. Further, the half-life at 50 µg/mL in series [1] turned out to be 40 min.
For `C[C@H](N)C(=O)N[C@@H](Cc1ccccc1)C(=O)NCC(=O)N[C@H](Cc1ccccc1)C(=O)N[C@H](CCC(N)=O)C(=O)N[C@@H](CO)C(=O)N[C@@H](C)C(=O)N[C@@H](Cc1ccc(O)cc1)C(=O)N[C@@H](CO)C(=O)O` [compound 134] (H-AFG[dF][dQ]SAYS-OH; N-terminus assumed), in that order: 1,37 DF/F0, 69.4 nM and 10 min.
Regarding YLPGQYLFL-OH [compound 56], the max response at human CMKLR1 (setting [2]) is listed as 0,57 DF/F0. Moreover, on human CMKLR1 (setting [3]), the 50% effective concentration (EC50) came to 114 nM. This molecule also returned a half-life at 50 µg/mL in series [1] of 19 min.
On to `CC(C)C[C@H](NC(=O)[C@@H](N)Cc1ccc(O)cc1)C(=O)N1CCC[C@H]1C(=O)N[C@H](CCC(N)=O)C(=O)N[C@@H](CCC(N)=O)C(=O)N[C@@H](Cc1ccc(O)cc1)C(=O)N[C@@H](C)C(=O)N[C@@H](Cc1ccccc1)C(=O)N[C@H](Cc1ccccc1)C(=O)O` [YLPqQYAFf] (H-YLP[dQ]QYAF[dF]-OH; N-terminus assumed), for which the EC50 at human CMKLR1 (setting [4]) worked out at 4.24 ± 1.87 nM. This molecule yielded a half-life at 50 µg/mL in series [1] of 87 ± 19 min.
On to `CC(C)C[C@H](NC(=O)[C@@H](N)Cc1ccc(O)cc1)C(=O)N1CCC[C@H]1C(=O)NCC(=O)N[C@@H](CCC(N)=O)C(=O)N[C@@H](Cc1ccccc1)C(=O)N[C@H](Cc1ccccc1)C(=O)N[C@@H](Cc1ccccc1)C(=O)N[C@@H](CO)C(=O)O` [compound 28] (H-YLPGQF[dF]FS-OH; N-terminus assumed), for which, on human CMKLR1 (setting [2]), the max response was 0,97 DF/F0. Besides, the concentration giving a half-maximal response (EC50) at human CMKLR1 (setting [3]) worked out at 0.77 nM. The half-life at 50 µg/mL in series [1] was determined as 24 min.
The matching figures for `C[C@H](NC(=O)[C@H](Cc1ccccc1)NC(=O)[C@H](C)NC(=O)[C@@H](N)Cc1ccccc1)C(=O)N[C@@H](Cc1ccccc1)C(=O)N[C@H](CO)C(=O)N[C@@H](Cc1ccccc1)C(=O)N[C@@H](C)C(=O)N[C@@H](Cc1ccc(O)cc1)C(=O)O` [compound 117] (H-FAFAF[dS]FAY-OH; N-terminus assumed): 0,87 DF/F0, 4450 nM and 26 min.
The matching figures for `C[C@H](NC(=O)CN)C(=O)N[C@@H](Cc1ccccc1)C(=O)N[C@@H](CCC(N)=O)C(=O)N[C@@H](Cc1ccccc1)C(=O)N[C@H](CO)C(=O)N[C@@H](C)C(=O)N[C@@H](Cc1ccccc1)C(=O)N[C@H](CO)C(=O)O` [compound 100] (H-GAFQF[dS]AF[dS]-OH; N-terminus assumed): 1,69 DF/F0, 129 nM and 71 min.
The matching figures for `CC(C)C[C@H](NC(=O)[C@@H](N)Cc1ccc(O)cc1)C(=O)N1CCC[C@H]1C(=O)NCC(=O)N[C@@H](CCC(N)=O)C(=O)N[C@@H](Cc1ccc(O)cc1)C(=O)N[C@@H](C)C(=O)N[C@@H](Cc1ccccc1)C(=O)N[C@H](Cc1ccccc1)C(=O)O` [compound 80] (H-YLPGQYAF[dF]-OH; N-terminus assumed): 1,77 DF/F0, 0.21 nM and 36 min.
Regarding `CC(C)C[C@H](NC(=O)[C@@H](N)Cc1ccc(O)cc1)C(=O)N1CCC[C@H]1C(=O)NCC(=O)N[C@@H](CCC(N)=O)C(=O)N[C@@H](Cc1ccc(O)cc1)C(=O)N[C@H](Cc1c[nH]c2ccccc12)C(=O)N[C@@H](Cc1ccccc1)C(=O)N[C@H](Cc1ccccc1)C(=O)O` [compound 122] (H-YLPGQY[dW]F[dF]-OH; N-terminus assumed), the max response on human CMKLR1 (setting [2]) is reported as 1,54 DF/F0. The t1/2 in series [1] is 159 min.
As for `CC(C)C[C@H](NC(=O)[C@@H](N)Cc1ccc(O)cc1)C(=O)N1CCC[C@H]1C(=O)NCC(=O)N[C@@H](CCC(N)=O)C(=O)N[C@@H](Cc1ccc(O)cc1)C(=O)N[C@H](Cc1c[nH]c2ccccc12)C(=O)N[C@@H](Cc1ccccc1)C(=O)N[C@H](Cc1ccccc1)C(=O)O` [YLPGQYwFf] (H-YLPGQY[dW]F[dF]-OH; N-terminus assumed), the 50% effective concentration (EC50) on human CMKLR1 (setting [4]) is 3.24 ± 1.02 nM. This molecule also came in with a half-life at 50 µg/mL in series [1] of 159 ± 56 min.
As for `CC(C)C[C@H](NC(=O)[C@@H]1CCCN1)C(=O)N[C@H](CCC(N)=O)C(=O)N[C@@H](Cc1ccc(O)cc1)C(=O)N1CCC[C@H]1C(=O)N[C@@H](Cc1ccc(O)cc1)C(=O)N[C@H](CS)C(=O)N[C@@H](CC(C)C)C(=O)N[C@H](Cc1ccccc1)C(=O)O` [compound 149] (H-PL[dQ]YPY[dC]L[dF]-OH; N-terminus assumed), the max response at human CMKLR1 (setting [2]) is given as 1,51 DF/F0. The EC50 at human CMKLR1 (setting [3]) was 271 nM. Also, the half-life at 50 µg/mL in series [1] came out at 30 min.
For `CC(C)[C@H](NC(=O)[C@@H](N)Cc1ccc(O)cc1)C(=O)N1CCC[C@H]1C(=O)NCC(=O)N[C@@H](CCC(N)=O)C(=O)N[C@@H](Cc1ccccc1)C(=O)N[C@@H](C)C(=O)N[C@@H](Cc1ccccc1)C(=O)N[C@H](CO)C(=O)O` [compound 90] (H-YVPGQFAF[dS]-OH; N-terminus assumed), in that order: 1,81 DF/F0, 50 nM and 23 min.
As to `CC(C)C[C@H](NC(=O)[C@H](Cc1ccc(O)cc1)NC(=O)[C@@H](Cc1ccccc1)NC(=O)[C@@H]1CCCN1C(=O)[C@H](CC(C)C)NC(=O)[C@@H](N)Cc1ccc(O)cc1)C(=O)N1CCC[C@H]1C(=O)NCC(=O)N[C@H](Cc1ccccc1)C(=O)O` [compound 145] (H-YLP[dF]YLPG[dF]-OH; N-terminus assumed), the max response on human CMKLR1 (setting [2]) is recorded as 1,02 DF/F0. Moreover, the EC50 at human CMKLR1 (setting [3]) was 150 nM. The molecule also returned a half-life at 50 µg/mL in series [1] of 40 min.

The EC50 is the concentration needed to bring the measured effect to its halfway point. By half-life is commonly meant the time needed for the level to fall by half in the phase considered.
